Experimental data taken from ChEMBL document CHEMBL4715854, “Discovery of Roblitinib (FGF401) as a Reversible-Covalent Inhibitor of the Kinase Activity of Fibroblast Growth Factor Receptor 4” (J Med Chem, 2020).
In brackets after ≈: the same amount, converted by molar mass.

How the values were obtained:
[1] = Drug metabolism in rat liver microsome assessed as reduction of aldehyde group at 10 mM measured after 15 mins in presence of NADPH by LC-MS analysis; type: ADME; conditions: microsomes, 10000 µM
[2] = Permeability of the compound in human Caco-2 cells assessed as compound recovery at 10 uM measured after 2 hrs by LC/MS/MS analysis; type: ADME, cell-based; conditions: read-out: Drug recovery
[3] = Drug metabolism in human liver microsome assessed as reduction of aldehyde group at 10 mM measured after 15 mins in presence of NADPH by LC-MS analysis; type: ADME; conditions: microsomes, 10000 µM
[4] = Aqueous solubility of compound at pH 6.8; type: physicochemical; conditions: buffer, time 15 min
[5] = Thermodynamic solubility of compound in phosphate buffer at pH 6.8 measured after 15 mins by shake-flask method based LC-HRMS analysis; type: physicochemical; conditions: read-out: Therm_solubility
[6] = Lipophilicity, log D of the compound in 1-octanol at pH 7.4 by potentiometric titration method; type: physicochemical
[7] = Dose normalized AUC in Crl:CD (SD) rat at 1 mg/kg, iv measured up to 24 hrs by LC-MS/MS analysis; type: ADME, organism-based; conditions: in vivo
[8] = Volume of distribution at steady state in Crl:CD (SD) rat at 1 mg/kg, iv or 3 mg/kg, po measured upto 24 hrs by LC-MS/MS analysis; type: ADME, organism-based; conditions: in vivo, read-out: Vdss
[9] = Half-life in Crl:CD (SD) rat at 1 mg/kg, iv or 3 mg/kg, po measured upto 24 hrs by LC-MS/MS analysis; type: ADME, organism-based; conditions: in vivo
[10] = Dose normalized AUC in Crl:CD (SD) rat at 3 mg/kg, po measured up to 24 hrs by LC-MS/MS analysis; type: ADME, organism-based; conditions: in vivo
[11] = Clearance in Crl:CD (SD) rat at 1 mg/kg, iv or 3 mg/kg, po measured up to 24 hrs by LC-MS/MS analysis; type: ADME, organism-based; conditions: in vivo
[12] = Oral bioavailability in Crl:CD (SD) rat at 3 mg/kg measured upto 24 hrs by LC-MS/MS analysis; type: ADME, organism-based; conditions: Crl:CD (SD), in vivo

With N#Cc1cnc(NC(=O)N2CCCc3ccc(C=O)nc32)cn1 the Drug metabolism [1] was “Metabolite_Detected”, the recovery at 2 h, 10 µM [2] was < 10% and the Drug metabolism [3] was “Metabolite_Detected”.
In the case of CC(C)Oc1cc(NC(=O)N2CCc3ccc(C=O)nc32)ncc1C#N, the Drug metabolism [1] was “Metabolite_Detected”, the recovery at 2 h, 10 µM [2] was < 10% and the Drug metabolism [3] was “Metabolite_Detected”.
For COCCNc1cc(NC(=O)N2CCCc3cc(-c4cccnc4)c(C=O)nc32)ncc1C#N, the Drug metabolism [1] was “Metabolite_Detected”, the recovery at 2 h, 10 µM [2] was < 10% and the Drug metabolism [3] was “Metabolite_Detected”.
In the case of COCCOc1cc(NC(=O)N2CCCc3cc(C(F)F)c(C=O)nc32)ncc1C#N, the Drug metabolism [1] was “Metabolite_Detected”, the recovery at 2 h, 10 µM [2] was < 10% and the Drug metabolism [3] was “Metabolite_Detected”.
With COCCOc1cc(NC(=O)N2CCCc3ccc(C=O)nc32)ncc1C#N the Drug metabolism [1] was “Metabolite_Detected”, the recovery at 2 h, 10 µM [2] was < 10% and the Drug metabolism [3] was “Metabolite_Detected”.
With N#Cc1ccc(NC(=O)N2CCCCc3ccc(C=O)nc32)nc1 the Drug metabolism [1] was “Metabolite_Detected”, the recovery at 2 h, 10 µM [2] was < 10% and the Drug metabolism [3] was “Metabolite_Detected”.
With COCCNc1cc(NC(=O)N2CCCc3cc(C4CCOCC4)c(C=O)nc32)ncc1C#N the Drug metabolism [1] was “Metabolite_Detected”, the recovery at 2 h, 10 µM [2] was < 10% and the Drug metabolism [3] was “Metabolite_Detected”.
With N#Cc1cnc(NC(=O)N2CCCc3cc(CO)c(C=O)nc32)cc1O[C@H]1CCOC1 the Drug metabolism [1] was “Metabolite_Detected”, the recovery at 2 h, 10 µM [2] was < 10% and the Drug metabolism [3] was “Metabolite_Detected”.
Compound CC(=O)N(C)Cc1cc2c(nc1C=O)N(C(=O)Nc1ccc(C#N)cn1)CCC2 has a solubility at […] [4] of 18 µM (≈ 7.06 µg/mL).
In the case of O=Cc1ccc2c(n1)N(C(=O)Nc1ccc(C(F)(F)F)cn1)CCC2, the Drug metabolism [1] was “Metabolite_Detected”, the recovery at 2 h, 10 µM [2] was < 10% and the Drug metabolism [3] was “Metabolite_Detected”. The solubility thermodynamic at […] [5] was 4.9 µM (≈ 1.72 µg/mL) and the logD [6] was 4.2.
In the case of COCCNc1cc(NC(=O)N2CCCc3cc(-c4ccnn4C)c(C=O)nc32)ncc1C#N, the Drug metabolism [1] was “Metabolite_Detected”, the recovery at 2 h, 10 µM [2] was < 10% and the Drug metabolism [3] was “Metabolite_Detected”.
In the case of N#Cc1ccc(NC(=O)N2CCCc3cc(CC(=O)O)c(C=O)nc32)nc1, the Drug metabolism [1] was “Metabolite_Detected”, the recovery at 2 h, 10 µM [2] was < 10% and the Drug metabolism [3] was “Metabolite_Detected”.
For N#Cc1ccc(NC(=O)N2CCCc3cc(CO)c(C=O)nc32)nc1, the Drug metabolism [1] was “Metabolite_Detected”, the recovery at 2 h, 10 µM [2] was < 10% and the Drug metabolism [3] was “Metabolite_Detected”.
For CC1(O)CCN(c2cc(NC(=O)N3CCCc4ccc(C=O)nc43)ncc2C#N)CC1, the Drug metabolism [1] was “Metabolite_Detected”, the recovery at 2 h, 10 µM [2] was < 10% and the Drug metabolism [3] was “Metabolite_Detected”.
With COCCNc1cc(NC(=O)N2CCCc3cc(C4CCN(C5COC5)CC4)c(C=O)nc32)ncc1C#N the Drug metabolism [1] was “Metabolite_Detected”, the recovery at 2 h, 10 µM [2] was < 10% and the Drug metabolism [3] was “Metabolite_Detected”.
In the case of COCCNc1cc(NC(=O)N2CCCc3cc(-c4cnc(C)s4)c(C=O)nc32)ncc1C#N, the AUC/dose [7] was 4703 nM·h, the Vd [8] was 1.5 L/kg and the Drug metabolism [1] was “Metabolite_Detected”. For the same compound, the half-life [9] was 3.5 h, the AUC/dose [10] was 2174 nM·h and the clearance [11] was 8 mL/min/kg. For the same compound, the recovery at 2 h, 10 µM [2] was < 10%, the bioavailability [12] was 46% and the Drug metabolism [3] was “Metabolite_Detected”. The solubility at […] [4] was < 4 µM and the solubility thermodynamic at […] [5] was < 6 µM.
For Cc1cc2c(nc1C=O)N(C(=O)Nc1ccc(C#N)cn1)CCC2, the Drug metabolism [1] was “Metabolite_Detected”, the recovery at 2 h, 10 µM [2] was < 10% and the Drug metabolism [3] was “Metabolite_Detected”.
In the case of N#Cc1ccc(NC(=O)N2CCCc3cc(C4CC4)c(C=O)nc32)nc1, the Drug metabolism [1] was “Metabolite_Detected”, the recovery at 2 h, 10 µM [2] was < 10% and the Drug metabolism [3] was “Metabolite_Detected”.
In the case of COCCNc1cc(NC(=O)N2CCCc3cc(N4CCOCC4=O)c(C=O)nc32)ncc1C#N, the Drug metabolism [1] was “Metabolite_Detected”, the recovery at 2 h, 10 µM [2] was < 10% and the Drug metabolism [3] was “Metabolite_Detected”.
With COCCOc1cc(NC(=O)N2CCCc3cc(C(F)(F)F)c(C=O)nc32)ncc1C#N the Drug metabolism [1] was “Metabolite_Detected”, the recovery at 2 h, 10 µM [2] was < 10% and the Drug metabolism [3] was “Metabolite_Detected”.
In the case of N#Cc1ccc(NC(=O)N2CCCc3cc(Cl)c(C=O)nc32)nc1, the Drug metabolism [1] was “Metabolite_Detected”, the recovery at 2 h, 10 µM [2] was < 10% and the Drug metabolism [3] was “Metabolite_Detected”.
